# Test results taken from patent publication US6855512B2, “Methods for identifying inhibitors of cytochrome P450RAI” (Allergan, Inc., priority 2000, dated 2005).
# Molecular target: T1, P450RAI-1 (Homo sapiens, UniProt O43174)
# T1 construct: expressed in transfected cells; host or cells: HeLa (stably transfected, hygromycin selection)
# T1 sequence (O43174 1-497): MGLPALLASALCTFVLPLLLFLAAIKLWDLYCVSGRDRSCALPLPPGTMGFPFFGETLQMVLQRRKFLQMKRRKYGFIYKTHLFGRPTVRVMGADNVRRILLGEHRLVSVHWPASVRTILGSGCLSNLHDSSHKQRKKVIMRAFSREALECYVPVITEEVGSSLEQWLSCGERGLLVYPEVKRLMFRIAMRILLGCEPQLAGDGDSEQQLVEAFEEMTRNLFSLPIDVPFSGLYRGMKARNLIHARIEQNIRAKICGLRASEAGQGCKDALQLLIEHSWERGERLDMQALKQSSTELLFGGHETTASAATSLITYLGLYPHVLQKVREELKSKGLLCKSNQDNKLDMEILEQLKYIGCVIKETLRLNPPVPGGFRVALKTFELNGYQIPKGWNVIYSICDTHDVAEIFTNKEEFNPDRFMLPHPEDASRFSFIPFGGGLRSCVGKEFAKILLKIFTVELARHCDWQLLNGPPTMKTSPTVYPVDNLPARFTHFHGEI
# Experiment: P450RAI-1 cell-based inhibitor assay (intact HeLa)
# Conditions: read-out: P450RAI INHIBITION DATA INTACT HELA IC50
# Procedure: P450RAI-1 Cell-Based Inhibitor Assay:
# P450RAI-1 stably transfected HeLa cells are maintained in […] tissue culture dishes in Modified Eagle's Medium (MEM) containing 10% Fetal Bovine Serum (FBS) and 100 μg/ml hygromycin. Exponentially growing cells are harvested by incubating in trypsin. Cells are then washed with 1× Phosphate Buffered Saline (PBS) and plated in a 48-well plate at 5×10^5 cells in 0.2 ml MEM medium containing 10% FBS and 0.05 μCi [^3H]-RA in the presence or absence of increasing concentrations of the test compounds. The compounds are diluted in 100% DMSO and then added in triplicate wells at either 10, 1 or 0.1 μM final concentration. As a positive control for RA metabolism inhibition, cells are also incubated with ketoconazole at 100, 10 and 1 μM. Cell are incubated for 3 hours at 37° C. […] The water soluble radioactivity is quantified using β-scintillation counter. IC50 values represent the concentration of inhibitor required to inhibit all-trans-RA metabolism by 50 percent and are derived manually from log-transformed data.
row,SMILES,IC50 [µM]
1,CC1(C)CCC(C)(C)c2cc(-c3ccc4cc(C(=O)O)ccc4c3)ccc21 [Compound 241],5.5
2,CC1(C)CCC(C)(C)c2cc(C(=O)Nc3ccc(C(=O)O)c(F)c3)ccc21 [Compound 237],6.8
3,COc1ccc(-c2ccc3cc(C(=O)O)ccc3c2)cc1C12CC3CC(CC(C3)C1)C2 [Compound 234],4.7
4,COc1cc(C(=O)Nc2ccc(C(=O)O)c(F)c2)cc2c1OC(C)(C)CC2(C)C [Compound 226],> 10
5,CC1(C)CCOc2c(Br)cc(C(=O)Nc3ccc(C(=O)O)c(F)c3)cc21 [Compound 225],> 10
6,CC(C)(C)c1cc(C#Cc2ccc(C(=O)O)cc2)cc(C(C)(C)C)c1O [Compound 235],7
7,CC1(C)CC(C)(C)c2cc(C(=O)Nc3ccc(C(=O)O)c(F)c3)cc(-c3ccccc3)c2O1 [Compound 224],5.5
8,CC1(C)CCC(C)(C)c2cc(C#Cc3ccc(C(=O)O)c(F)c3)ccc21 [Compound 230],5.1
9,CCOc1c(Br)cc(C(=O)Nc2ccc(C(=O)O)c(F)c2)cc1C(C)(C)C [Compound 223],> 10
10,CC1(C)CCSc2ccc(C#Cc3ccc(C(=O)O)cn3)cc21 [Compound 238],7.2
11,CC1(C)CCSc2ccc(C#Cc3ccc(C(=O)O)cc3)cc21 [Compound 215],6.2
12,CC1(C)CCC(C)(C)c2cc(C(=O)/C=C/c3ccc(C(=O)O)cc3)ccc21 [Compound 242],5.8
13,CC1=C(/C=C/C#Cc2ccc(C(=O)O)cn2)C(C)(C)CCC1 [Compound 244],5.1
14,CC1(C)CCC(C)(C)c2cc(C(=O)Oc3ccc(C(=O)O)cc3)ccc21 [Compound 243],7.4
15,CCOc1c(I)cc(C(=O)Nc2ccc(C(=O)O)c(F)c2)cc1C(C)(C)C [Compound 222],> 10
16,CC1=C(/C=C/C#Cc2ccc(C(=O)O)cc2)C(C)(C)CCC1 [Compound 217],6.3
17,CC1(C)CC(C)(C)c2cc(C(=O)Nc3ccc(C(=O)O)c(F)c3)ccc2O1 [Compound 228],6
18,CC1(C)CC(C)(C)c2cc(C(=O)Nc3ccc(C(=O)O)c(F)n3)cc(Cl)c2O1 [Compound 221],> 10
19,CC1=C(/C=C/C#Cc2ccc(C(=O)O)cc2)C(C)(C)CCC1(C)C [Compound 212],7
20,CC1(C)CCC(O)c2ccc(C#Cc3ccc(C(=O)O)cc3)cc21 (stereo not drawn) [Compound 232],4.2

# Further molecules by falling IC50, results first:
row,IC50 [µM],SMILES
1,4.1,CC1(C)CC(C)(C)c2cc(C(=O)Oc3ccc(C(=O)O)cc3)ccc2O1 [Compound 231]
2,3.4,CC1(C)CCCc2cc(C#Cc3ccc(C(=O)O)cc3)ccc21 [Compound 218]
3,3.3,CC1(C)CCC(C)(C)c2cc(C#Cc3ccc(C(=O)O)cc3)ccc21 [Compound 216]
4,3.3,CC1=C(/C=C/C#Cc2ccc(C(=O)O)s2)C(C)(C)CCC1 [Compound 245]
5,3.2,CC1=C(/C=C/C#Cc2ccc(C(=O)O)cc2)C(C)(C)CCS1 [Compound 219]
6,3.1,CC1(C)CCC(C)(C)c2c1cc(O)c(C(=O)Nc1ccc(C(=O)O)cc1)c2F [Compound 246]
7,3,CC1(C)CCSc2ccc(C#Cc3ccc(C(=O)O)s3)cc21 [Compound 240]
8,1.9,COc1ccc(C#Cc2ccc(C(=O)O)cc2)cc1C12CC3CC(CC(C3)C1)C2 [Compound 214]
9,1.8,CCC1(CC)CC(C)(C)c2cc(C(=O)Nc3ccc(C(=O)O)c(F)c3)cc(Br)c2O1 [Compound 206]
10,1.7,CC(C)(C)c1cc(C#Cc2ccc(C(=O)O)cc2)cc(Cl)c1O [Compound 209]
11,1.6,CC1=C(/C=C/C#Cc2ccc(C(=O)O)c(F)c2)C(C)(C)CCC1 [Compound 229]
12,1.3,O=C(O)c1ccc2cc(-c3ccc(O)c(C45CC6CC(CC(C6)C4)C5)c3)ccc2c1 [Compound 233]
13,1.3,Cc1cc(C(=O)Nc2ccc(C(=O)O)cc2)cc2c1OC(C)(C)CC2(C)C [Compound 227]
14,1,CC1(C)CC(C)(C)c2cc(C(=O)Nc3ccc(C(=O)O)c(F)c3)cc(C(F)(F)F)c2O1 [Compound 205]
15,1,Cc1cc(C(=O)Nc2ccc(C(=O)O)c(F)c2)cc2c1OC(C)(C)CC2(C)C [Compound 220]
16,1,CC1(C)CCCc2ccc(C#Cc3ccc(C(=O)O)cc3)cc21 [Compound 208]
17,0.7,CC1(C)CC(C)(C)c2cc(C(=O)Nc3ccc(C(=O)O)c(F)c3)cc(C3CC3)c2O1 [Compound 204]
18,0.62,CC1(C)CC(C)(C)c2cc(C(=O)Nc3ccc(C(=O)O)c(F)c3)cc(Cl)c2O1 [Compound 203]
19,0.6,CC1(C)CCSc2ccc(C#Cc3ccc(CC(=O)O)cc3)cc21 [Compound 202]
